Assay results taken from ChEMBL document CHEMBL3991601, “The target landscape of clinical kinase drugs” (Science, 2017).
Active and inactive are the calls of the source. Cut-off read from the data, not from the text of the source, for most assays here: actives have a measured Kd and inactives only a lower limit.

Legend:
[1] = biological target: T1, DNA replication licensing factor MCM4 (Homo sapiens, UniProt P33991)
T1 sequence (P33991 whole entry): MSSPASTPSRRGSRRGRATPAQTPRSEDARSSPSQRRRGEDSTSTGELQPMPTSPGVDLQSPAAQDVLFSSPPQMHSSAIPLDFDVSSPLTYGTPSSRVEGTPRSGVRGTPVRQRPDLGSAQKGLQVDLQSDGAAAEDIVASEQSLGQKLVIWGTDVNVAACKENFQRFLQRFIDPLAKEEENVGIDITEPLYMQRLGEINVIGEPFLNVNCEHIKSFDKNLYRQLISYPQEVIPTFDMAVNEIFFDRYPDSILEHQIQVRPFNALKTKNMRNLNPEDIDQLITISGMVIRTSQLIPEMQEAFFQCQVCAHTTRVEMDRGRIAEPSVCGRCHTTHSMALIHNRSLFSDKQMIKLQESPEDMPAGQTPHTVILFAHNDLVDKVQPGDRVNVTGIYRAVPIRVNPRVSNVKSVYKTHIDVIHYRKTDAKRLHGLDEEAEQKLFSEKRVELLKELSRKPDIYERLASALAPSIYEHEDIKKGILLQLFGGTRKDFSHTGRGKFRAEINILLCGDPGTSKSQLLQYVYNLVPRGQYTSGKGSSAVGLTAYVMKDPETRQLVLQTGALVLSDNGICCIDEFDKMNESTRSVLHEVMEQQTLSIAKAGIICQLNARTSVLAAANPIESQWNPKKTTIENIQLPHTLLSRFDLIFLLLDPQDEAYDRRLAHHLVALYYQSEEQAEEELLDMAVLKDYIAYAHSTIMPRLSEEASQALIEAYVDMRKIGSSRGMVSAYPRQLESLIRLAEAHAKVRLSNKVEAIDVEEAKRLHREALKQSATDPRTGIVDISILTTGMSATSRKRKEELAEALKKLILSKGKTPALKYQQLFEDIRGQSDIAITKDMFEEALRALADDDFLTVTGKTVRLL

[2] = biological target: Proto-oncogene tyrosine-protein kinase Src (Homo sapiens, UniProt P12931)
Sequence of Proto-oncogene tyrosine-protein kinase Src (P12931 2-536 limits assumed): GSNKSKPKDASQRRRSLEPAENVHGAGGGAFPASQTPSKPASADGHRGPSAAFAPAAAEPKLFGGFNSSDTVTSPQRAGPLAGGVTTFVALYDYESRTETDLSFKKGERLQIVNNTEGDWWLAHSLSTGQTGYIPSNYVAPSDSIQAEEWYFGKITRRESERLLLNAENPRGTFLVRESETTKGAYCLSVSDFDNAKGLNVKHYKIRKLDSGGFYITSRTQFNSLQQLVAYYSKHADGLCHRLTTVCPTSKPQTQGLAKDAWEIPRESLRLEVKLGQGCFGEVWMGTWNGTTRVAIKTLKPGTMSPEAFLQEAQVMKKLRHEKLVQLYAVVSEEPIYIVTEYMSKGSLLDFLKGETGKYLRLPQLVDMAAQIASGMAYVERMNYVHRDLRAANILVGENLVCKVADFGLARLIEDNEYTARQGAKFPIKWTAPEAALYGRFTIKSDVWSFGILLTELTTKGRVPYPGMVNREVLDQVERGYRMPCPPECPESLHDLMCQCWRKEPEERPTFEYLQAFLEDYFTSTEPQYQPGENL

[3] = biological target: T2, Cyclin-G-associated kinase (Homo sapiens, UniProt O14976)
T2 sequence (O14976 whole entry): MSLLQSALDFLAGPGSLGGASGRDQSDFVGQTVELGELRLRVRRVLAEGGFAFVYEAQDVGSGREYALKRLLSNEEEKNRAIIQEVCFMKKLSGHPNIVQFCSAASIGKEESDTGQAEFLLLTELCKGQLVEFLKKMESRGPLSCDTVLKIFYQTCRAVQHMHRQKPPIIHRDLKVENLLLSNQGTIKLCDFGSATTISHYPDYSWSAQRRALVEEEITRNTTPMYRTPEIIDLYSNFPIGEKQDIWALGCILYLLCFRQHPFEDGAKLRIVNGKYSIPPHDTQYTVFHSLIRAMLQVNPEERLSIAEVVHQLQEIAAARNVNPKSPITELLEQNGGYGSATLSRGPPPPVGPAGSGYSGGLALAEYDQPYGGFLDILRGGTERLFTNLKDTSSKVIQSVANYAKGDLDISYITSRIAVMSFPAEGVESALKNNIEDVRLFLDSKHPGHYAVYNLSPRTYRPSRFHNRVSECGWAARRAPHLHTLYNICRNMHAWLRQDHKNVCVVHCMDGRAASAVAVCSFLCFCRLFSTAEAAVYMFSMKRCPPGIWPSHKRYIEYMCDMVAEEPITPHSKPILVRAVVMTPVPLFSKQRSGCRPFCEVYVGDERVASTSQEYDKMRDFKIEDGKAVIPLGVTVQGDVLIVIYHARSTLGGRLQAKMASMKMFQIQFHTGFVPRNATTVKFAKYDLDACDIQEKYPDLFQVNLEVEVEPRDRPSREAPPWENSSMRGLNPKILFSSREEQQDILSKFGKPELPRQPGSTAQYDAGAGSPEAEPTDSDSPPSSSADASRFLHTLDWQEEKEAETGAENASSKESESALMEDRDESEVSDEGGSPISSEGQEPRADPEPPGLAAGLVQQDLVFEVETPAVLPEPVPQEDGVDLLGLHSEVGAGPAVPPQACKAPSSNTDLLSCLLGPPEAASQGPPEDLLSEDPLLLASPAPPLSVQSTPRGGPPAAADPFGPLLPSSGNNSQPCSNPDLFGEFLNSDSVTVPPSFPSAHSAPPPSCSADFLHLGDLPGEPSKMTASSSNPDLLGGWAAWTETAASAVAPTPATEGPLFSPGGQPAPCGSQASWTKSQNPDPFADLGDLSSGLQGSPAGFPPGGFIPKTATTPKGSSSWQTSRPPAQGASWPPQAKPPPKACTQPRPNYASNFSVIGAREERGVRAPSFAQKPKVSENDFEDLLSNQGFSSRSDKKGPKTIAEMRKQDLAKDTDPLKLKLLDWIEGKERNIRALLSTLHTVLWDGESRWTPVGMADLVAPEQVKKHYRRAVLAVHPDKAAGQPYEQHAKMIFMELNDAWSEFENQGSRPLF

[4] = biological target: T3, AarF domain-containing protein kinase 1 (Homo sapiens, UniProt Q86TW2)
T3 sequence (Q86TW2 whole entry): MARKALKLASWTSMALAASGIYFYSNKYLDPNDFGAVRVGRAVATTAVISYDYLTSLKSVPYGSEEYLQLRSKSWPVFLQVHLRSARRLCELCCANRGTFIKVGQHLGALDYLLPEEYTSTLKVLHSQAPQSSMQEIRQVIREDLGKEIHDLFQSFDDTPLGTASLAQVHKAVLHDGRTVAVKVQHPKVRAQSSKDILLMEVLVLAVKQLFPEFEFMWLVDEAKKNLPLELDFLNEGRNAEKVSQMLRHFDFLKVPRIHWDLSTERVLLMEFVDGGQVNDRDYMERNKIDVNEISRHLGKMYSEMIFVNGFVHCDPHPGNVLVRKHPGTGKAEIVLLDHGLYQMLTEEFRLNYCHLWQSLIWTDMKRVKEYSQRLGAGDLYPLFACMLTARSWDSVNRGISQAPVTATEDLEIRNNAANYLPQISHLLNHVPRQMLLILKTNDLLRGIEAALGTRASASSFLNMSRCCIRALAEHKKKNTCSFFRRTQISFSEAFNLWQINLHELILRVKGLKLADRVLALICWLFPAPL

[5] = biological target: Myosin light chain kinase, smooth muscle (Homo sapiens, UniProt Q15746)
Sequence of Myosin light chain kinase, smooth muscle (Q15746 whole entry): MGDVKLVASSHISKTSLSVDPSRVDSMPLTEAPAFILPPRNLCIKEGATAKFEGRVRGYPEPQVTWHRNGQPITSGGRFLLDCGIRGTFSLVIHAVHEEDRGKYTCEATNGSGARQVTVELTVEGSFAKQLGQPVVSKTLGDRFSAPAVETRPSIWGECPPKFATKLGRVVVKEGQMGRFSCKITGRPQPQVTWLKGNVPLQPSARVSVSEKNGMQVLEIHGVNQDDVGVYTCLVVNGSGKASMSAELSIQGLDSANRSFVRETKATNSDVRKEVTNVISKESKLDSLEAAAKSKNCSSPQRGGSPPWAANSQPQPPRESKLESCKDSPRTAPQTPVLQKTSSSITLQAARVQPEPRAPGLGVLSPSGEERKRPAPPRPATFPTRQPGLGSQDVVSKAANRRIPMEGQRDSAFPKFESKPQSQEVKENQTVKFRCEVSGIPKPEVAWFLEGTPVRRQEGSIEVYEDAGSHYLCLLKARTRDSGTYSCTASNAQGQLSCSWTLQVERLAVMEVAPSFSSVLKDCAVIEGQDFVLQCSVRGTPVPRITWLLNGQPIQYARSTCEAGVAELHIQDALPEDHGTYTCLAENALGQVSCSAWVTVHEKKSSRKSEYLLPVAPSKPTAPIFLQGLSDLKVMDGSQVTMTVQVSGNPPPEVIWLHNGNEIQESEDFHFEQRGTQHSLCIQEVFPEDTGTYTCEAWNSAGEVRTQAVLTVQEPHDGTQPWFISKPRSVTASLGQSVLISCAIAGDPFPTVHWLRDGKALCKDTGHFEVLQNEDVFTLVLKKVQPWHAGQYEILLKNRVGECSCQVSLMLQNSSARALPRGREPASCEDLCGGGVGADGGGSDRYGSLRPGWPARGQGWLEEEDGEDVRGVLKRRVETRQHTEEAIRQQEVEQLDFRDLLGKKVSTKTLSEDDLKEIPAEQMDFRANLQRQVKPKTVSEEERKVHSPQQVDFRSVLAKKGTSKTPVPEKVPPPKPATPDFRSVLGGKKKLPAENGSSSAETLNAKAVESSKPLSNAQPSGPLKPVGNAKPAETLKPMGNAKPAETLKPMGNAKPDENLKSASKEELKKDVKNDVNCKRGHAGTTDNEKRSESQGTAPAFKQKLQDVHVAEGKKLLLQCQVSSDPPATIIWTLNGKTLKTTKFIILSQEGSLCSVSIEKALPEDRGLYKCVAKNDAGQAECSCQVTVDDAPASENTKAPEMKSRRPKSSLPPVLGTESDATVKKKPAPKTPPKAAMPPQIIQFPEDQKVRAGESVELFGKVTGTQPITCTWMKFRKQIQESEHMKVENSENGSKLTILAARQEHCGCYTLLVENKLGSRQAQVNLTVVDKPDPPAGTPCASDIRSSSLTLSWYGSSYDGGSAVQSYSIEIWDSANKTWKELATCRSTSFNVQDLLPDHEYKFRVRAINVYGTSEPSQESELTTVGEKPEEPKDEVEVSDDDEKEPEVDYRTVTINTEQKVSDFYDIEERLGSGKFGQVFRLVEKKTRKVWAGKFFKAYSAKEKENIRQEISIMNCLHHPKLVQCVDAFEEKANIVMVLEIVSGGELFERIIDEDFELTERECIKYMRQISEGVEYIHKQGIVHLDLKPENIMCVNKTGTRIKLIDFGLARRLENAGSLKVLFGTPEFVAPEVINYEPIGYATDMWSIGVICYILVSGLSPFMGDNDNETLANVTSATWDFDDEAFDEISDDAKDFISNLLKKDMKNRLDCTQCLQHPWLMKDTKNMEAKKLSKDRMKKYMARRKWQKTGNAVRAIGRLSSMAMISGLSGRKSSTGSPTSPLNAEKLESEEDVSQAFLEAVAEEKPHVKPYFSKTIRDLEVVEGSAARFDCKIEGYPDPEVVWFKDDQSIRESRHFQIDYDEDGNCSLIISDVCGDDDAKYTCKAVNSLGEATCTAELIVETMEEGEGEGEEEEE

[6] = biological target: Tyrosine-protein kinase ABL1 (Homo sapiens, UniProt P00519)
Sequence of Tyrosine-protein kinase ABL1 (P00519 whole entry): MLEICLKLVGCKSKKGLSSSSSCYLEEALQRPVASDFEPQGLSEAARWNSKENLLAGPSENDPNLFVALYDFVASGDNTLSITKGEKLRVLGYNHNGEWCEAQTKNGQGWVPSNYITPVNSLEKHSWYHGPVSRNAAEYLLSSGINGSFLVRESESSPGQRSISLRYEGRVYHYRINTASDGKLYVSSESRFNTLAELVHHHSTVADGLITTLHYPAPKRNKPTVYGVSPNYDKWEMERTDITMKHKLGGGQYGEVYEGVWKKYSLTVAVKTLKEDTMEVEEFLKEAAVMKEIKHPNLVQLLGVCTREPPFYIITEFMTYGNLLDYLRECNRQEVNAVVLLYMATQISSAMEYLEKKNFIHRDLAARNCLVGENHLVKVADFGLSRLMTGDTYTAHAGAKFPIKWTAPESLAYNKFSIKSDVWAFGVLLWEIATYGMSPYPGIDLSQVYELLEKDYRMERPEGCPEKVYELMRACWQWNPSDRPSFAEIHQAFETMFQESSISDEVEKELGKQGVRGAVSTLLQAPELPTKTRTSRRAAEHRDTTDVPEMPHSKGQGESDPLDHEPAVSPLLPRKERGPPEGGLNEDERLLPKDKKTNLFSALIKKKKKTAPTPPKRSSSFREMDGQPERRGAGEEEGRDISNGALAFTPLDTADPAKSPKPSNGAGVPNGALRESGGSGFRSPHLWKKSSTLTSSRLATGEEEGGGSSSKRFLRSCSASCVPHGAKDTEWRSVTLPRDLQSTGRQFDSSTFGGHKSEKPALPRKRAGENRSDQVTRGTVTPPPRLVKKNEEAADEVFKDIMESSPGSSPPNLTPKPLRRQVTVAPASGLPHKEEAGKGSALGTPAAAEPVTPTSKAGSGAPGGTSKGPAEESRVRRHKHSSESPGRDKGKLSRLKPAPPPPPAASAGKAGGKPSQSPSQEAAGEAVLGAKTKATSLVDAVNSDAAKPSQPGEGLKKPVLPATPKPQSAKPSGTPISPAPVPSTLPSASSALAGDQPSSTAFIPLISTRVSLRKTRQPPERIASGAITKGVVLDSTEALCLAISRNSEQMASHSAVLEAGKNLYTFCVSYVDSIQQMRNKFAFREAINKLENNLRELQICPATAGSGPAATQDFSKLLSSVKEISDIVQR

[7] = biological target: Receptor-interacting serine/threonine-protein kinase 2 (Homo sapiens, UniProt O43353)
Sequence of Receptor-interacting serine/threonine-protein kinase 2 (O43353 whole entry): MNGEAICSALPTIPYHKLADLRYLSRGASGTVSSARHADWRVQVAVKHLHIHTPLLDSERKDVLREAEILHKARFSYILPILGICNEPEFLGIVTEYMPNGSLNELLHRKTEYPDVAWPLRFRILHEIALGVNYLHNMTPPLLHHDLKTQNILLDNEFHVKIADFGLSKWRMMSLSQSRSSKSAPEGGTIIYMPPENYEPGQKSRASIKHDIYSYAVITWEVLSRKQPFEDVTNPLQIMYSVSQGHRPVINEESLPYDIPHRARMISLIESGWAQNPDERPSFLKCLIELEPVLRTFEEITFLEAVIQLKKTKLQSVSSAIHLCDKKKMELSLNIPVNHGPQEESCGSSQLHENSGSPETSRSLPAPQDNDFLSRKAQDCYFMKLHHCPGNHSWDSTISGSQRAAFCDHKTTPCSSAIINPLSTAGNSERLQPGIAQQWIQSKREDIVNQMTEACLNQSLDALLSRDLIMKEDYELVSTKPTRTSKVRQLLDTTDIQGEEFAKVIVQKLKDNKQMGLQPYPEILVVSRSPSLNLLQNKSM
Note: in the data inactive means no Kd found up to 30 µM.

Kd [1] | Kd [2] | Kd [4] | Kd [6] | SMILES | Kd [3] | Kd [5] | Kd [7]
> 30 µM (inactive) | > 30 µM (inactive) | > 30 µM (inactive) | > 30 µM (inactive) | O=c1[nH]c([C@@H]2CCCN2)nc2c1oc1ccc(Cl)cc12 | > 30 µM (inactive) | > 30 µM (inactive) | > 30 µM (inactive)
> 30 µM (inactive) | > 30 µM (inactive) | 0.04 µM (active) | > 30 µM (inactive) | CCN1CCN(Cc2ccc(Nc3ncc(F)c(-c4cc(F)c5nc(C)n(C(C)C)c5c4)n3)nc2)CC1 [ABEMACICLIB] | 2.19 µM (active) | > 30 µM (inactive) | > 30 µM (inactive)
> 30 µM (inactive) | – | > 30 µM (inactive) | – | CN(C)C/C=C/C(=O)Nc1cc2c(Nc3ccc(F)c(Cl)c3)ncnc2cc1O[C@H]1CCOC1 [AFATINIB] | – | – | –
> 30 µM (inactive) | > 30 µM (inactive) | > 30 µM (inactive) | > 30 µM (inactive) | CCc1cc2c(cc1N1CCC(N3CCOCC3)CC1)C(C)(C)c1[nH]c3cc(C#N)ccc3c1C2=O [ALECTINIB] | 0.259 µM (active) | > 30 µM (inactive) | > 30 µM (inactive)
> 30 µM (inactive) | > 30 µM (inactive) | > 30 µM (inactive) | – | CCN(CCCOc1ccc2c(Nc3cc(CC(=O)Nc4cccc(F)c4)n[nH]3)ncnc2c1)CCOP(=O)(O)O [BARASERTIB] | > 30 µM (inactive) | > 30 µM (inactive) | 1.85 µM (active)
> 30 µM (inactive) | – | > 30 µM (inactive) | – | C[C@@]1(C(=O)Nc2ccc(F)nc2)CCCN1c1nc(Nc2cc(C3CC3)n[nH]2)c2cccn2n1 [BMS-754807] | – | – | –
> 30 µM (inactive) | > 30 µM (inactive) | > 30 µM (inactive) | – | COc1cc2c(Oc3ccc4[nH]c(C)cc4c3F)ncnc2cc1OCCCN1CCCC1 [CEDIRANIB] | – | – | –
> 30 µM (inactive) | > 30 µM (inactive) | > 30 µM (inactive) | – | Cn1c(=O)n(-c2ccc(C(C)(C)C#N)cc2)c2c3cc(-c4cnc5ccccc5c4)ccc3ncc21 [DACTOLISIB] | > 30 µM (inactive) | > 30 µM (inactive) | > 30 µM (inactive)
> 30 µM (inactive) | > 30 µM (inactive) | > 30 µM (inactive) | – | O=S(=O)(c1cccc2c(O)nccc12)N1CCCNCC1 [HYDROXYFASUDIL] | > 30 µM (inactive) | > 30 µM (inactive) | > 30 µM (inactive)
> 30 µM (inactive) | – | > 30 µM (inactive) | – | CC1(C)CNc2cc(NC(=O)c3cccnc3NCc3ccncc3)ccc21 [MOTESANIB] | – | – | –
> 30 µM (inactive) | – | > 30 µM (inactive) | – | Cn1cnc2c(F)c(Nc3ccc(Br)cc3Cl)c(C(=O)NOCCO)cc21 [SELUMETINIB] | – | – | –
> 30 µM (inactive) | > 30 µM (inactive) | > 30 µM (inactive) | > 30 µM (inactive) | CC(C)(O)CC(=O)NCCn1ccc2ncnc(Nc3ccc(Oc4cccc(C(F)(F)F)c4)c(Cl)c3)c21 [TAK-285] | > 30 µM (inactive) | > 30 µM (inactive) | –
> 30 µM (inactive) | – | > 30 µM (inactive) | – | COc1cc2c(N3CCN(C(=O)Nc4ccc(OC(C)C)cc4)CC3)ncnc2cc1OCCCN1CCCCC1 [TANDUTINIB] | – | – | –

SMILES | Kd [1] | Kd [2] | Kd [4] | Kd [6] | Kd [3] | Kd [5] | Kd [7]
Cn1cc(-c2[nH]c3cc(NC(=O)[C@H](N)C4CCCCC4)cc4c3c2C=NNC4=O)cn1 | > 30 µM (inactive) | 1.4 µM (active) | 4.5 µM (active) | – | 0.023 µM (active) | > 30 µM (inactive) | > 30 µM (inactive)
Cc1c(NC(=O)OC[C@@H]2COCCN2)cn2ncnc(Nc3ccc4c(cnn4Cc4cccc(F)c4)c3)c12 [AC-480] | > 30 µM (inactive) | > 30 µM (inactive) | > 30 µM (inactive) | > 30 µM (inactive) | > 30 µM (inactive) | > 30 µM (inactive) | > 30 µM (inactive)
C=CCn1c(=O)c2cnc(Nc3ccc(N4CCN(C)CC4)cc3)nc2n1-c1cccc(C(C)(C)O)n1 [ADAVOSERTIB] | > 30 µM (inactive) | > 30 µM (inactive) | 1.9 µM (active) | – | 0.418 µM (active) | > 30 µM (inactive) | > 30 µM (inactive)
O=S(=O)(c1cccc2cnccc12)N1CCCNCC1 [FASUDIL] | > 30 µM (inactive) | – | > 30 µM (inactive) | > 30 µM (inactive) | > 30 µM (inactive) | > 30 µM (inactive) | > 30 µM (inactive)
C[C@]1(O)C[C@@H](c2nc(-c3ccc4ccc(-c5ccccc5)nc4c3)c3c(N)nccn32)C1 [LINSITINIB] | > 30 µM (inactive) | – | > 30 µM (inactive) | – | > 30 µM (inactive) | > 30 µM (inactive) | 1.36 µM (active)
N#CCNC(=O)c1ccc(-c2ccnc(Nc3ccc(N4CCOCC4)cc3)n2)cc1 [MOMELOTINIB] | > 30 µM (inactive) | > 30 µM (inactive) | 0.217 µM | – | 0.822 µM (active) | > 30 µM (inactive) | > 30 µM (inactive)
CN(c1ncccc1CNc1nc(Nc2ccc3c(c2)CC(=O)N3)ncc1C(F)(F)F)S(C)(=O)=O [PF-00562271] | > 30 µM (inactive) | – | > 30 µM (inactive) | – | > 30 µM (inactive) | > 30 µM (inactive) | > 30 µM (inactive)
CC(C)CC(=O)Nc1[nH]nc2c1CN(C(=O)C1CCN(C)CC1)C2(C)C [PHA-793887] | > 30 µM (inactive) | > 30 µM (inactive) | > 30 µM (inactive) | – | > 30 µM (inactive) | > 30 µM (inactive) | > 30 µM (inactive)
C=CCN(/C=C1/C(=O)O[C@H](COC)[C@@]2(C)C1=C(O)C(=O)C1=C2[C@H](OC(C)=O)C[C@]2(C)C(=O)CC[C@@H]12)CC=C [SONOLISIB] | – | > 30 µM (inactive) | > 30 µM (inactive) | > 30 µM (inactive) | > 30 µM (inactive) | > 30 µM (inactive) | > 30 µM (inactive)
